Experiment [1] addresses T1, Bromodomain-containing protein 9 (Homo sapiens, UniProt Q9H8M2).
T1 sequence (Q9H8M2 whole entry): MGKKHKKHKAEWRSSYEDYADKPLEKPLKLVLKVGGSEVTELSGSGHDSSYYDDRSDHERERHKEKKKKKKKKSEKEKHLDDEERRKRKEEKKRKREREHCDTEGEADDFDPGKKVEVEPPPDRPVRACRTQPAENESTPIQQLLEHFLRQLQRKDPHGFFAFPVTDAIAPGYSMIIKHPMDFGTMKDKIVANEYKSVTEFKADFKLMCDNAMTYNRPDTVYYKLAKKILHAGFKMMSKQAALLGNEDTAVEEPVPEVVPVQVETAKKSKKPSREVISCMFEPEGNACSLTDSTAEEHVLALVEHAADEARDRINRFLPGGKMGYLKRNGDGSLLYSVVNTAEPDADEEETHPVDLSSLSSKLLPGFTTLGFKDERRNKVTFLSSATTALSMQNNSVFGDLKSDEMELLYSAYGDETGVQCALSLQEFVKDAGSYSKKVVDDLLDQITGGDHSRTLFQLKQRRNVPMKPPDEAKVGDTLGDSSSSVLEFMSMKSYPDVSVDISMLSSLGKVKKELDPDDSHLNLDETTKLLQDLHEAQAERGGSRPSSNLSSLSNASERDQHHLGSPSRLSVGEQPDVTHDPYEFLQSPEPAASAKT
Briefly: Inhibition of human BRD9 expressed in Escherichia coli BL21 after 1 hr by BROMOscan assay.

The target in experiment [2] is T2, Bromodomain-containing protein 1 (Homo sapiens, UniProt O95696).
T2 sequence (O95696 whole entry): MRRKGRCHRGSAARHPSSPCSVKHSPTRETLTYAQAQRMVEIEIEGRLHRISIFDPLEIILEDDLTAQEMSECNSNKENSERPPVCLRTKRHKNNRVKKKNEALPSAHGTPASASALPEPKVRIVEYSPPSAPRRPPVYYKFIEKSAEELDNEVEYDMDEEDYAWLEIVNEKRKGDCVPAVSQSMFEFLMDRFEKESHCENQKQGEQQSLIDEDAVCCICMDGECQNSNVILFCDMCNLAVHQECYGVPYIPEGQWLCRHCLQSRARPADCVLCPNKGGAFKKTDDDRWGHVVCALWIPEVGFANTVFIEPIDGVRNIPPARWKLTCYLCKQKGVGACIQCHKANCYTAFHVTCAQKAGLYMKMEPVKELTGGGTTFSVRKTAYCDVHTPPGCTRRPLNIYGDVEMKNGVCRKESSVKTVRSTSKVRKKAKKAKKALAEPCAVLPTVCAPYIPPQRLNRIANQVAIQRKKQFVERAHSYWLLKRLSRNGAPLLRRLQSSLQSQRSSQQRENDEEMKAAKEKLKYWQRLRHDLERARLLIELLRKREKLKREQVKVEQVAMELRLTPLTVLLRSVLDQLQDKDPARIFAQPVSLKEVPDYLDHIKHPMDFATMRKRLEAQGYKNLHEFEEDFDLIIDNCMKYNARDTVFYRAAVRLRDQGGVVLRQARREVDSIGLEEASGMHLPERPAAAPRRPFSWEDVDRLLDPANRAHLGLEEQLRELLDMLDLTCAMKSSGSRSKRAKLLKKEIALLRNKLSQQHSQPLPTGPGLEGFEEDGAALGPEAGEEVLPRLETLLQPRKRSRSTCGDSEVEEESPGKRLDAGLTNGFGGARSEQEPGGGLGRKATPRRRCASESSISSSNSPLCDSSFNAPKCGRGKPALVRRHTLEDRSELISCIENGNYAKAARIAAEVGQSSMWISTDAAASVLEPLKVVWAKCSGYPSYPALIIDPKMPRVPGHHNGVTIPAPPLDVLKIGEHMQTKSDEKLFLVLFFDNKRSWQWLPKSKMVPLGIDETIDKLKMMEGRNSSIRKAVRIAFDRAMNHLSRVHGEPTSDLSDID
Briefly: Inhibition of human BRPF2-BRD1 expressed in Escherichia coli BL21 after 1 hr by BROMOscan assay.

Experiment [3] has as its target T3, Bromodomain and PHD finger-containing protein 3 (Homo sapiens, UniProt Q9ULD4).
T3 sequence (Q9ULD4 whole entry): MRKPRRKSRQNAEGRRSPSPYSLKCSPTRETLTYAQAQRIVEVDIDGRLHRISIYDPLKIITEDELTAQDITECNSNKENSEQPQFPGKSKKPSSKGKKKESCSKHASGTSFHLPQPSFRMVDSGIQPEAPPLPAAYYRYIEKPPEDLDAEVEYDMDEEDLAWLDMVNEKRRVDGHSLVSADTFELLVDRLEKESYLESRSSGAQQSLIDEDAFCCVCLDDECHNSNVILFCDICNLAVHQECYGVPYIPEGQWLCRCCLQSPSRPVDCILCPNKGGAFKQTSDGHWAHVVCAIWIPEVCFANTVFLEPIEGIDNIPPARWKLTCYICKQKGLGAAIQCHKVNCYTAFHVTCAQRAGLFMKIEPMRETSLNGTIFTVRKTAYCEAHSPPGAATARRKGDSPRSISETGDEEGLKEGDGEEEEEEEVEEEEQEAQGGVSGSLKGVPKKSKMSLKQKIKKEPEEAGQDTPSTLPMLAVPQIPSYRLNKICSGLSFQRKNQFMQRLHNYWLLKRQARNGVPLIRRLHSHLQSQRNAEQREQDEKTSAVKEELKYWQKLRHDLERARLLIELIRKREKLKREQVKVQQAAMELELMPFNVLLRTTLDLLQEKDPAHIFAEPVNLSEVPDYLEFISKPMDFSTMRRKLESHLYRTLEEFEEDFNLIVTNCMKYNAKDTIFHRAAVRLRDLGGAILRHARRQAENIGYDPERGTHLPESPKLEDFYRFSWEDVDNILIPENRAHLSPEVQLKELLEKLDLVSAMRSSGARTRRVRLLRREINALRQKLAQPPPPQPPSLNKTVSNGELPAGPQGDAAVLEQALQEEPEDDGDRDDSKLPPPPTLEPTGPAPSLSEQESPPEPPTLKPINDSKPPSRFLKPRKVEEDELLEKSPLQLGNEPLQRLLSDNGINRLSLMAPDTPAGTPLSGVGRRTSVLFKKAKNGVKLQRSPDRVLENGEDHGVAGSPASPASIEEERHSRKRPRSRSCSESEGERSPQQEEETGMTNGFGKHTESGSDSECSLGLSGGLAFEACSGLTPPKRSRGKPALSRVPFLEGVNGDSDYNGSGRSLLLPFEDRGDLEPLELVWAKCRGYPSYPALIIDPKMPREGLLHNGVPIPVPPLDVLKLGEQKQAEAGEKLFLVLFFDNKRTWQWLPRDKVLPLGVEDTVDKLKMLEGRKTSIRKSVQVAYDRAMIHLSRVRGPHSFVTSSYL
Briefly: Inhibition of human BRPF3 expressed in Escherichia coli BL21 after 1 hr by BROMOscan assay.

In the case of `Cc1cc2cc(NS(=O)(=O)c3ccc(C#N)cc3)ccc2n(C)c1=O`, the half-maximal inhibitory concentration (IC50) was 310 nM in experiment [1], 48 nM in experiment [2] and 260 nM in experiment [3].
The matching figures for `COc1cc2c(cc1NS(=O)(=O)c1ccc(C#N)cc1)c(C)cc(=O)n2C`: 890 nM, 1800 nM and 9300 nM.
The matching figures for `COc1ccccc1C(=O)Nc1cc2cc(C)c(=O)n(C)c2cc1N1CCCC1`: 420 nM, 2600 nM and 12000 nM.
The corresponding values for `Cn1c(=O)ccc2cc(NS(=O)(=O)c3ccc(C#N)c(Cl)c3)ccc21` are 2500 nM, 450 nM and 2300 nM.
In the case of `CCc1cc2cc(NS(=O)(=O)c3ccc(C#N)cc3)ccc2n(CC)c1=O`, the concentration for half-maximal inhibition (IC50) in experiment [1], in experiment [2] and in experiment [3] was above 100000 nM each time.

By IC50 is commonly meant the point on the concentration scale where inhibition reaches its midpoint. Read a high IC50 as weaker potency in that assay.

(Values after ChEMBL document CHEMBL4052588, “Design of a Biased Potent Small Molecule Inhibitor of the Bromodomain and PHD Finger-Containing (BRPF) Proteins Suitable for Cellular and in Vivo Studies” (J Med Chem, 2017).)
